{"source": "patent US20040009537A1", "about": "“Methods of modulating and of identifying agents that modulate intracellular calcium” (priority 2002, published 2004)", "origin": "cited, not measured here", "test_system": "HeLa cells", "details": "HeLa cells treated with histamine; decrease from about 60-400 μM", "data": [{"smiles": "NCCc1c[nH]cn1", "note": "[histamine]", "values": [{"measurement": "ER free calcium", "result": "1 to 50", "unit": "µM"}]}]}
